Drawing on patent US20140243334A1, “SUBSTITUTED HYDOXAMIC ACIDS AND USES THEREOF” (Millennium Pharmaceuticals, Inc., priority 2010, published 2014), this text covers inhibition for five compounds.

In this assay the target is T1, purified human HDAC6 (Homo sapiens, UniProt Q9UBN7).
T1 construct: purchased BPS Bioscience 5006
T1 sequence (Q9UBN7 1-1215): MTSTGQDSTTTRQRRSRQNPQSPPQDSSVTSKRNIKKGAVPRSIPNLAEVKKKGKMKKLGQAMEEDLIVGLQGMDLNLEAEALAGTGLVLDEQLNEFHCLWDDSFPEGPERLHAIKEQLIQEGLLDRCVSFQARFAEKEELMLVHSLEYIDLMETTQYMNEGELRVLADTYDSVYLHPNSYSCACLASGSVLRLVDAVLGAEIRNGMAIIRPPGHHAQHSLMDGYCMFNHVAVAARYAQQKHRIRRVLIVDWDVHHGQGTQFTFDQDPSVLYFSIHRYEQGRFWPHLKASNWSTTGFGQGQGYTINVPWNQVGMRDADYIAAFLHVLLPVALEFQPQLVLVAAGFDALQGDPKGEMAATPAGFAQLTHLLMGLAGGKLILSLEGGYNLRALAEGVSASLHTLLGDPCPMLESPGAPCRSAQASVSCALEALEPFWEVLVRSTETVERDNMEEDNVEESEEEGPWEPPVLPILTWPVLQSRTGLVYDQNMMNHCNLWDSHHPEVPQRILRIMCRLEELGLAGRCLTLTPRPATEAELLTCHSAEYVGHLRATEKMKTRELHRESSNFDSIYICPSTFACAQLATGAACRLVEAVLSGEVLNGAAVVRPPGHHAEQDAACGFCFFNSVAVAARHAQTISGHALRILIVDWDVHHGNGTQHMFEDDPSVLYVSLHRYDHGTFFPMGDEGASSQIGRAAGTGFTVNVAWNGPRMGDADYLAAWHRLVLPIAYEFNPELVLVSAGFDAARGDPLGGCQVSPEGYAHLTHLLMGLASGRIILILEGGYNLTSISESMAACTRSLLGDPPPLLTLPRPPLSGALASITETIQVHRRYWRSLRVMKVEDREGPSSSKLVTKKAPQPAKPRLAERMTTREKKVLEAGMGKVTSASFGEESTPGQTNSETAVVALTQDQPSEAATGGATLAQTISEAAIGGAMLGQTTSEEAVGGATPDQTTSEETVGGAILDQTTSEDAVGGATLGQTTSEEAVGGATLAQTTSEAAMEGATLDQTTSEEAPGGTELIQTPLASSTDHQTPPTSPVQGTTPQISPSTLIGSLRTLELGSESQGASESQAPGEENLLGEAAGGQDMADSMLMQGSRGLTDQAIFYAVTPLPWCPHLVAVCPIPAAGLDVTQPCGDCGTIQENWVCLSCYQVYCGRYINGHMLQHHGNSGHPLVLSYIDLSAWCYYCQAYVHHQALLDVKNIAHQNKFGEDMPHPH
In words: HDAC6 Enzyme Assay. Type of assay: biochemical. Particulars: HDAC6 inhibition at a compound concentration of 0.412 μM; read-out: Percent Inhibition at 0.412 μM.

Turning to `CC(C)(C#N)c1ccc(-c2ccc3c(c2)CC(C(=O)NO)CC3)cc1` (centres unmarked) [Compound I-120, 7-[4-(1-cyano-1-methylethyl)phenyl]-N-hydroxy-1,2,3,4-tetrahydronaphthalene-2-carboxamide], the inhibition (as a rule, the change of the read-out against control, counted positive when it falls) at 0.412 µM turned out to be 55%.
For `O=C(NO)C1CCc2ccc(-c3ccc(OCc4ccccc4)cc3)cc2C1` (centres unmarked) [Compound I-121, 7-[4-(benzyloxy)phenyl]-N-hydroxy-1,2,3,4-tetrahydronaphthalene-2-carboxamide] the value was 54%; for `CC(C)Cc1ccc(-c2ccc3c(c2)CC(C(=O)NO)CC3)cc1` (centres unmarked) [Compound I-122, N-hydroxy-7-(4-isobutylphenyl)-1,2,3,4-tetrahydronaphthalene-2-carboxamide], 34%; for `O=C(NO)C1CCc2ccc(-c3ccc(S(=O)(=O)N4CCCCC4)cc3)cc2C1` (centres unmarked) [Compound I-123, N-hydroxy-7-[4-(piperidin-1-ylsulfonyl)phenyl]-1,2,3,4-tetrahydronaphthalene-2-carboxamide], 61%.
Consider `CC1(C(=O)NO)CCc2ccc(Oc3ccc(Cl)cc3)cc2C1` (centres unmarked) [Compound I-124, 7-(4-Chlorophenoxy)-N-hydroxy-2-methyl-1,2,3,4-tetrahydronaphthalene-2-carboxamide], for which the inhibition at 0.412 µM was found to be 16%.
